Test: xn = mol fraction of the nth substance listed
Settings: 101 kPa, Liquid; for viscosity: Falling or rolling sphere viscometry; for mass density: Vibrating tube method

CCCC[n+]1ccc(C)cc1.O=S(=O)([N-]S(=O)(=O)C(F)(F)F)C(F)(F)F + CCCC[n+]1ccccc1.F[B-](F)(F)F
Settings | mass density [kg/m3] | viscosity [mPa·s]
293.15 K, x2 = 0 | 1416.6 | 70.6
293.15 K, x2 = 0.0575 | 1409.3 | 75.3
293.15 K, x2 = 0.1136 | 1401.9 | 77.8
293.15 K, x2 = 0.2311 | 1385.1 | 88.7
293.15 K, x2 = 0.3515 | 1366 | 101.1
293.15 K, x2 = 0.4566 | 1347.8 | 115.1
293.15 K, x2 = 0.5692 | 1326.2 | 135.2
293.15 K, x2 = 0.673 | 1304 | 153.4
293.15 K, x2 = 0.7836 | 1277.5 | 171.9
293.15 K, x2 = 0.889 | 1249.1 | 195
293.15 K, x2 = 0.9535 | 1230.2 | 216.1
303.15 K, x2 = 0 | 1407.3 | 45.2
303.15 K, x2 = 0.0575 | 1400.1 | 47.3
303.15 K, x2 = 0.1136 | 1392.8 | 49.3
303.15 K, x2 = 0.2311 | 1376.2 | 55.5
303.15 K, x2 = 0.3515 | 1357.4 | 63.3
303.15 K, x2 = 0.4566 | 1339.4 | 72.7
303.15 K, x2 = 0.5692 | 1318.1 | 81.7
303.15 K, x2 = 0.673 | 1296.1 | 90.6
303.15 K, x2 = 0.7836 | 1270 | 98.9
303.15 K, x2 = 0.889 | 1241.9 | 109.6
303.15 K, x2 = 0.9535 | 1223.2 | 118.8
313.15 K, x2 = 0 | 1398.1 | 30.6
313.15 K, x2 = 0.0575 | 1391 | 31.9
313.15 K, x2 = 0.1136 | 1383.8 | 33
313.15 K, x2 = 0.2311 | 1367.4 | 37
313.15 K, x2 = 0.3515 | 1348.8 | 42.3
313.15 K, x2 = 0.4566 | 1331.1 | 47.2
313.15 K, x2 = 0.5692 | 1310 | 52.1
313.15 K, x2 = 0.673 | 1288.3 | 56.6
313.15 K, x2 = 0.7836 | 1262.5 | 61.3
313.15 K, x2 = 0.889 | 1234.7 | 66.9
313.15 K, x2 = 0.9535 | 1216.2 | 72.5
323.15 K, x2 = 0 | 1388.8 | 21.8
323.15 K, x2 = 0.0575 | 1381.9 | 22.6
323.15 K, x2 = 0.1136 | 1374.7 | 23.5
323.15 K, x2 = 0.2311 | 1358.6 | 26.4
323.15 K, x2 = 0.3515 | 1340.3 | 29.6
323.15 K, x2 = 0.4566 | 1322.8 | 32.4
323.15 K, x2 = 0.5692 | 1302 | 35.4
323.15 K, x2 = 0.673 | 1280.5 | 38.2
323.15 K, x2 = 0.7836 | 1255 | 41
323.15 K, x2 = 0.889 | 1227.6 | 44.1
323.15 K, x2 = 0.9535 | 1209.3 | 46.5
333.15 K, x2 = 0 | 1379.7 | 16.1
333.15 K, x2 = 0.0575 | 1372.8 | 16.8
333.15 K, x2 = 0.1136 | 1365.8 | 17.5
333.15 K, x2 = 0.2311 | 1349.8 | 19.5
333.15 K, x2 = 0.3515 | 1331.8 | 21.6
333.15 K, x2 = 0.4566 | 1314.5 | 23.3
333.15 K, x2 = 0.5692 | 1294 | 25.2
333.15 K, x2 = 0.673 | 1272.8 | 27
333.15 K, x2 = 0.7836 | 1247.6 | 28.9
333.15 K, x2 = 0.889 | 1220.5 | 30.8
333.15 K, x2 = 0.9535 | 1202.4 | 32.2
343.15 K, x2 = 0 | 1370.5 | 12.3
343.15 K, x2 = 0.0575 | 1363.8 | 12.8
343.15 K, x2 = 0.1136 | 1356.9 | 13.3
343.15 K, x2 = 0.2311 | 1341.1 | 14.6
343.15 K, x2 = 0.3515 | 1323.3 | 16
343.15 K, x2 = 0.4566 | 1306.3 | 17.2
343.15 K, x2 = 0.5692 | 1286 | 18.5
343.15 K, x2 = 0.673 | 1265.1 | 19.7
343.15 K, x2 = 0.7836 | 1240.2 | 20.9
343.15 K, x2 = 0.889 | 1213.4 | 22.1
343.15 K, x2 = 0.9535 | 1195.6 | 23
353.15 K, x2 = 0 | 1361.5 | 9.8
353.15 K, x2 = 0.0575 | 1354.9 | 10.1
353.15 K, x2 = 0.1136 | 1348 | 10.5
353.15 K, x2 = 0.2311 | 1332.5 | 11.4
353.15 K, x2 = 0.3515 | 1314.9 | 12.4
353.15 K, x2 = 0.4566 | 1298.1 | 13.3
353.15 K, x2 = 0.5692 | 1278.1 | 14.1
353.15 K, x2 = 0.673 | 1257.5 | 14.9
353.15 K, x2 = 0.7836 | 1232.8 | 15.8
353.15 K, x2 = 0.889 | 1206.3 | 16.6
353.15 K, x2 = 0.9535 | 1188.8 | 17.2

Reference: the NIST ThermoML archive (doi:10.1021/je300972a)
